Test results: BindingDB's records for doi:10.1016/j.bmcl.2003.12.063 (Sankyo, 2004)

Target: Ileal sodium/bile acid cotransporter (Mesocricetus auratus)
Assay: In vitro Inhibition of apical sodium-dependent bile acid transporter by measuring the uptake of [3H]taurocholate in hamster ileal ring

Compound	IC50
CCN(C(=O)c1cn(-c2cc(OC)cc(OC)c2)c2cc(OCCCCCCCC[N+]34CCN(CC3)CC4)ccc2c1=O)c1cc(F)cc(F)c1 [1-{8-[3-[(3,5-Difluoro-phenyl)-ethyl-carbamoyl]-1-(3,5-dimethoxy-phenyl)-4-oxo-1,4-dihydro-quinolin-7-yloxy]-octyl}-4-aza-1-azonia-bicyclo[2.2.2]octane; bromide]	1070 nM
CCCCC1(CCCC)CS(=O)(=O)c2ccc(N(C)C)cc2[C@@H](c2ccc(OC)cc2)[C@H]1O [(4R,5R)-3,3-Dibutyl-7-dimethylamino-5-(4-methoxy-phenyl)-1,1-dioxo-2,3,4,5-tetrahydro-1H-1lambda*6*-benzo[b]thiepin-4-ol]	> 63000 nM

The next lines start with the values.

IC50	Compound
> 185000 nM	CCC(CC)CC(=O)c1c(C(=O)OC)c(-c2ccc(OC)c(OC)c2)c2c(OC)c(OC)c(OC)cc2c1O [1-(3,4-Dimethoxy-phenyl)-3-(3-ethyl-pentanoyl)-4-hydroxy-6,7,8-trimethoxy-naphthalene-2-carboxylic acid methyl ester]
770 nM	CCN(C(=O)c1cn(-c2cc(OC)cc(OC)c2)c2cc(OCCCCCCC[N+]34CCN(CC3)CC4)ccc2c1=O)c1cc(F)cc(F)c1 [1-{7-[3-[(3,5-Difluoro-phenyl)-ethyl-carbamoyl]-1-(3,5-dimethoxy-phenyl)-4-oxo-1,4-dihydro-quinolin-7-yloxy]-heptyl}-4-aza-1-azonia-bicyclo[2.2.2]octane; bromide]
2800 nM	CCC(CC)CC(=O)c1c(C(=O)OC)c(-c2ccc(OC)c(OC)c2)c2c(OC)c(OC)c(OC)cc2c1OC1O[C@H](C(=O)O)[C@@H](O)[C@H](O)[C@H]1O (stereo partly drawn) [(2S,3S,4S,5R)-6-[4-(3,4-Dimethoxy-phenyl)-2-(3-ethyl-pentanoyl)-5,6,7-trimethoxy-3-methoxycarbonyl-naphthalen-1-yloxy]-3,4,5-trihydroxy-tetrahydro-pyran-2-carboxylic acid]
